Test results from patent US20110318270A1, “DRUG IDENTIFICATION PROTOCOL FOR TYPE 2 DIABETES BASED ON GENE EXPRESSION SIGNATURES” (VERVA PHARMACEUTICALS LTD, priority 2009, published 2011).

Legend:
[1] = tested on: Diet-induced obese (DIO) mice; experiment: Insulin sensitising effects of CAIs in diet-induced obese mice; format: in vivo; conditions: for effect on glucose tolerance: 20-100 mg/kg/day for 14 days
[2] = tested on: Diet-induced obese (DIO) mice; experiment: as above; format: in vivo; conditions: for reduction in the incremental area under the glucose curve (AUC) compared with vehicle-treated animals / glucose disposal: 50 mg/kg/day for 14 days, intraperitoneal glucose tolerance test
Method: Diet-induced obese (DIO) mice were treated with each CAI at 50 mg/kg/day for 14 days.

[3] = tested on: TNFα-treated 3T3-L1 adipocytes; experiment: TNFα-based GES small molecule library screen (MassARRAY, Zrcc score); format: cell-based; set-up: key: Zrcc: Z-score normalized for sample variation and gene contribution; conditions: 10 μM compound in final 24 h of 72 h TNFα (n=2); TTA n=29, TNF n=57
Method: In order to identify new insulin sensitizing agents, a small molecule library consisting of 1120 high-purity, off-patent chemical compounds was screened using the GES. First, 3T3 […] adipocytes were cultured in fourteen 96-well plates and incubated with 3 ng/ml TNFα for 72 h prior to the addition of 10 μM of each compound in the last 24 h of TNFα treatment. Four vehicle control, four TNFα and two TNFα plus ASA- and TGZ-treated wells serving as controls were included per 96-well plate. The aim of the screen was to identify compounds that caused the expression of the 7 gene GES to most closely resemble the expression levels observed in the insulin re-sensitized cells as this is likely to indicate that these cells have restored insulin sensitivity. Following RNA extraction and cDNA synthesis, gene expression analysis of the 7 gene GES was performed using the MassARRAY (Sequenom, San Diego, Calif.) [Cullinan and Cantor Pharmacogenomics 9:1211-1215, 2008]. Data are represented as a Z-score residual coefficient correlation (Zrcc); a Z-score that is normalised for sample to sample variation and for the relative contribution that each gene makes to the predictive power of the GES. Compounds were ranked based on their Zrcc score highest to lowest, and as an initial proof of concept validation test, the top ranked 30 compounds and 23 randomly chosen, mid-ranked compounds were subjected to 2-DOG uptake assays to determine their potential insulin sensitising effects. 3T3 […] adipocytes were incubated with 25 μM of each compound prior to performing 2-DOG uptake assays in the presence or absence of submaximal amounts of insulin (0.5 nM for 15 min).
The GES-ranked compounds were next broadly grouped into classes based on known mechanism of action or common structural features and re-represented as the mean Zrcc. Only compound classes with 10 or more members were considered further. As a result, the class of treatments that scored the highest, thus representing the most insulin sensitive cells, were the vehicle-treated cells with an average Zrcc score of 1.76±0.37; (p<0.0001 to TNFα treatment and p<0.002 to TNFαplus ASA and TGZ co-treatments).
In a CD63-only screen, TTA results with a negative score and TNF with a positive (p=0.02). Serving as internal controls in the screen, 3T3-L1 adipocytes were either treated with vehicle (0.2% w/v DMSO) for 72 h (n=55), 3 ng/ml TNFα for 72 h (TNF (n=57) or 3 ng/ml TNFα for 72 h plus 10 μM TGZ and 5 mM ASA in the final 24 h of the TNFα incubation (TTA) (n=29). The gene expression analysis of the GES was performed using the Mass ARRAY system (Cullinan and Cantor, 2008 supra). Data are calculated as a Z-score of the residual component following adjustment for total expression levels and incorporating the correlation coefficients derived from the Bayesian prediction model (Zrcc). The resulting metric is a Z-score that was normalized for sample to sample variation and for the relative contribution that each gene makes to the predictive power of the GES. Data are represented as mea Zrcc values±SEM (with p values compared with TNF-treated sample). The statistical analyses were performed using Student's t-Test assuming 2-tailed distribution and 2-sample equal variance.
In this assay, 3T3-L1 adipocytes were incubated with TNFα for 72 h followed by the addition of 10 μM of each compound in the final 24 h of the TNFα treatment (n=2). Compounds include VVP808, published insulin sensitizers furazolidone (FUR) (monoamine oxidase inhibitor), mesalamine (MES) and fosfosal (FOS) (NSAIDs), and estradiol-17-beta (EST), and known insulin resistance-inducing compounds such as ajmaline (AJM) (glucose uptake inhibitor) and corticosterone (COR) (glucocorticoid). Serving as internal controls in the screen, 3T3-L1 adipocytes were either treated with vehicle (0.2% DMSO) for 72 h (n=55), 3 ng/ml TNFα for 72 h) TNF) (n=57) or 3 ng/ml TNFα for 72 h plus 10 μM TGZ and […] ASA in the final 24 h of the TNFα incubation (TTA) (n=29). […]

[4] = tested on: 3T3-L1 adipocytes; experiment: Reversal of TNFα-induced insulin resistance, 2-deoxyglucose (2-DOG) uptake; format: cell-based
Method: Initially, a model of TNFα-induced insulin resistance in 3T3-L1 adipocytes was established as described previously (Sartipy and Loskutoff J Biol Chem 278:52298-52306, 2003). Following exposure of 3T3-L1 adipocytes to 3 ng/ml TNFα for 72 h, insulin resistance was determined by the ability of the cells to take up 2-deoxyglucose (2-DOG) in response to insulin. TNFα caused a 37% decrease in 2-DOG uptake compared with insulin-stimulated vehicle-treated cells (p<0.0001) (Table 1).
3T3-L1 adipocytes were either treated with vehicle—(Veh), 3 ng/ml TNFα-(TNF) or 3 ng/ml TNFα plus 10 μM TGZ and 5 mM ASA (TTA) as detailed above. Cells were then treated with insulin (0 or 10 nM) for 30 min followed by measurement of 2-deoxyglucose (2-DOG) uptake over the final 10 min of insulin stimulation. Data are presented as % change in 2-DOG uptake compared with vehicle-treated, insulin-stimulated cells and represent mean values±SEM of >3 independent experiments and each data point was assayed in triplicate. […] The amount of 2-DOG transported in vehicle-treated adipocytes was 20.5±3.4 pmol/min/well. Statistical analyses were performed using Student's t-Test assuming 2-tailed distribution and 2-sample equal variance.

[5] = tested on: 3T3-L1 adipocytes; experiment: HA-tagged GLUT4 translocation to the plasma membrane; format: cell-based; conditions: 10 μM for 20 h (ASA 5 mM), then 0.5 nM insulin
Method: FIGS. 2a and 2b are graphical representations of a compound stimulation of HA-tagged GLUT4 translocation to the plasma membrane in 3T3-L1 adipocytes. Adipocytes were incubated with 10 μM of each compound for 20 h prior to acute stimulation with 0.5 nM of insulin and measurement of HA-tagged GLUT4 translocation to the plasma membrane. a. The effect of the compound classes closest to TNFα plus ASA and TGZ co-incubated samples GES profile (see FIG. 1) on HA-tagged GLUT4 movement. Data are presented as fold change compared with 0.5 nM insulin alone set at 1.0 and represent mean values±SEM; n=12-40 per class. b. Individual CAI members effect on GLUT4 movement. […]
A secondary screen was next undertaken to test the 8 drug classes ranked most similar to the insulin re-sensitised TNFαplus ASA and TGZ co-treated samples to determine their ability to affect exogenous HA-tagged GLUT4 translocation to the plasma membrane in the presence of submaximal 0.5 nM insulin (Govers et al. Mol Cell Biol 24:6456-6466, 2004). Members from the sodium channel blockers, beta lactams, GABA antagonists, sulfamide antifolates, lipoxygenase inhibitors, dopamine antagonists, carbonic anhydrase inhibitors (CAIs) and antibiotics were incubated at 10 μM doses for 20 h and the overall effect of each class member was assessed and averaged.

[6] = tested on: db/db mice; conditions: for change in blood glucose levels compared with vehicle-treated animals: 300 mg/kg metformin or 20 mg/kg MTZ for 8 d
Method: Mice treated with MTZ (50 mg/kg/d) for 14 d were placed into metabolic cages for 24 h.

Nc1ccccc1S(N)(=O)=O [2ABS, 2-aminobenzene sulphonamide]
effect on glucose tolerance [1]: no significant effect
reduction in the incremental area under the glucose curve (AUC) compared with vehicle-treated animals / glucose disposal [2]: did not affect glucose disposal

CC[C@H]1[C@@H]2C[C@H]3[C@@H]4N(C)c5ccccc5[C@]45C[C@@H]([C@H]2[C@H]5O)N3[C@@H]1O [AJM, ajmaline]
Mean Zrcc_GES ± SEM, CLU single gene [3]: −0.2
Mean Zrcc_GES ± SEM, CS single gene [3]: −0.5
Mean Zrcc_GES ± SEM, STEAP4 single gene [3]: 0.6

CC(=O)Oc1ccccc1C(=O)O [ASA, aspirin]
reversal of TNFα impairment of insulin-stimulated 2-DOG uptake ([4]; 5 mM ASA and/or 10 μM TGZ in final 24 h of 72 h TNFα treatment): fully reversed TNFα effects
HA-GLUT4 translocation above submaximal insulin [5]: increased

C[C@]12C[C@H](O)[C@H]3[C@@H](CCC4=CC(=O)CC[C@@]43C)[C@@H]1CC[C@@H]2C(=O)CO [COR, corticosterone]
Mean Zrcc_GES ± SEM, CLU single gene [3]: 0.5
Mean Zrcc_GES ± SEM, CS single gene [3]: −0.5
Mean Zrcc_GES ± SEM, STEAP4 single gene [3]: −0.2

NS(=O)(=O)c1cc(C2(O)NC(=O)c3ccccc32)ccc1Cl (stereo not shown) [CTD, chlorthalidone]
effect on glucose tolerance [1]: no significant effect
reduction in the incremental area under the glucose curve (AUC) compared with vehicle-treated animals / glucose disposal [2]: did not affect glucose disposal

NS(=O)(=O)c1cc(Cl)c(Cl)c(S(N)(=O)=O)c1 [DCP, dichlorphenamide]
effect on glucose tolerance [1]: no significant effect
reduction in the incremental area under the glucose curve (AUC) compared with vehicle-treated animals / glucose disposal [2]: did not affect glucose disposal

O=C(O)c1ccccc1OP(=O)(O)O [FOS, fosfosal]
Mean Zrcc_GES ± SEM, CLU single gene [3]: 0.6
Mean Zrcc_GES ± SEM, CS single gene [3]: −0.05
Mean Zrcc_GES ± SEM, STEAP4 single gene [3]: 0.3

O=C1OCCN1/N=C/c1ccc([N+](=O)[O-])o1 [FUR, furazolidone]
Mean Zrcc_GES ± SEM, CLU single gene [3]: 0.4
Mean Zrcc_GES ± SEM, CS single gene [3]: −0.2
Mean Zrcc_GES ± SEM, STEAP4 single gene [3]: 0.7

Nc1ccc(O)c(C(=O)O)c1 [MES, mesalamine]
Mean Zrcc_GES ± SEM, CLU single gene [3]: −0.9
Mean Zrcc_GES ± SEM, CS single gene [3]: 3.1
Mean Zrcc_GES ± SEM, STEAP4 single gene [3]: −0.4

CNS(=O)(=O)c1nn(C)c(=NC(C)=O)s1 [MMTZ, N-methyl-methazolamide]
reduction in the incremental area under the glucose curve (AUC) compared with vehicle-treated animals / glucose disposal [2]: not observed

CC(=O)/N=c1/sc(S(N)(=O)=O)nn1C [MTZ, methazolamide]
plasma insulin levels ([1]; 14 days, dose range): dose-dependent decrease
circulating glucose levels compared with vehicle-treated mice ([1]; concentrations above 20 mg/kg, 14 days): significant reduction
body weight, food and water intake or epididymal fat mass compared with vehicle-treated mice [2]: without significant changes
reduction in the incremental area under the glucose curve (AUC) compared with vehicle-treated animals / glucose disposal [2]: 27%
24 h urine output and creatine excretion ([2]; vs vehicle-treated): not significantly altered
time of administration after which the fasting glucose effect peaked ([6]; db/db mice): 7 days
time of administration after which the fasting glucose effect was seen ([6]; db/db mice): 3 days
lower HbA1c levels ([6]; db/db mice, 50 mg/kg for 28 days, vs vehicle): up to 23%
reduction of glucose urine concentration compared with vehicle-treated mice ([6]; db/db mice, 50 mg/kg/d for 14 d, metabolic cages 24 h): 18%
change in blood glucose levels compared with vehicle-treated animals ([6]; db/db mice): significantly lower change
fasting glucose levels ([6]; db/db mice, 20 or 50 mg/kg/d for 14 days): dose-dependent decrease
body weight, food or water intake ([6]; mouse, in vivo, 20 mg/kg): No change
decrease in food intake ([6]; mouse, in vivo, 50 mg/kg): 27%
food intake ([6]; mouse, in vivo, 50 mg/kg): 4.8 ± 0.5 g/day
change in fasting blood glucose after the treatment period ([6]; pair-fed db/db mice, 8 days, n=6/group): -6.2 ± 1.5 mM

CC(=O)/N=c1/sc(S(N)(=O)=O)nn1C [compound 808]
Mean Zrcc_GES ± SEM, CLU single gene [3]: −0.4
Mean Zrcc_GES ± SEM, CS single gene [3]: 0.2
Mean Zrcc_GES ± SEM, STEAP4 single gene [3]: 0.5

NS(=O)(=O)c1cc(C(=O)O)c(NCc2ccco2)cc1Cl [furosemide]
effect on glucose tolerance [1]: no significant effect

CN(C)C(=N)N=C(N)N [metformin]
change in blood glucose levels compared with vehicle-treated animals ([6]; db/db mice): significantly lower change

Acute Insulin: insulin, 10 nM for 30 min
2-DOG Uptake (% of insulin-stimulated alone) ([4]; insulin 10 nM 30 min, TNFα 3 ng/ml 72 h, 10 μM TGZ & 5 mM ASA final 24 h, mean ± SEM): 100.0 ± 9.7%
fold increase in 2-DOG uptake above basal level ([4]; vehicle-treated, insulin-stimulated adipocytes (10 nM, 30 min)): 6.6±0.6 fold

estradiol-17-beta
Mean Zrcc_GES ± SEM, CLU single gene [3]: 0.5
Mean Zrcc_GES ± SEM, CS single gene [3]: 0.04
Mean Zrcc_GES ± SEM, STEAP4 single gene [3]: 0.3
